According to PMC7023430, “4-Aminobenzoic Acid Derivatives: Converting Folate Precursor to Antimicrobial and Cytotoxic Agents” (Biomolecules, 2019):
Values after ≈ are worked out from the molar mass of the structure shown. Where two headings read alike, the source gives them in different places.

Columns and labels:
[1] = tested on: Mycobacterium kansasii 235/80; experiment: Antimycobacterial micromethod in Šula's medium, M. kansasii 235/80; assay type: cell-based
[2] = tested on: M. kansasii 6509/96 (clinical isolate); experiment: Antimycobacterial micromethod in Šula's medium, M. kansasii 6509/96; assay type: cell-based; conditions: Mycobacterium kansasii
Candida glabrata 20/I = experiment: Antifungal microdilution broth method, C. glabrata; assay type: cell-based; conditions: Nakaseomyces glabratus
Protocol: (§1) The antifungal properties were evaluated against five yeast strains, namely: Candida albicans ATCC 44859, Candida tropicalis 156, Candida krusei […], Candida glabrata 20/I, Trichosporon […] 1188 and three strains of filamentous fungi: Aspergillus fumigatus 231, Lichtheimia corymbifera 272, and Trichophyton interdigitale 445. A microdilution broth method was performed according to EUCAST II, III instructions with slight modifications. Briefly, tested compounds were dissolved in DMSO and diluted in a twofold manner with RPMI-1640 medium with L-glutamine, supplemented with 2% glucose (w/v) and buffered to pH 7.0 with 3 morpholinopropane-1-sulfonic acid (all components were purchased from Sigma-Aldrich, USA). […] Positive controls consisted of test microbe solely, while negative controls consisted of medium and DMSO. Internal quality control was included too. Visual inspection was used for MIC endpoints evaluation. The experiments were conducted in duplicates. For the results to be valid, the difference in MIC determined from two parallel measurements must not be greater than one step on the dilution scale. PABA and triazole antimycotic drug fluconazole were involved as the reference compounds.

[3] = tested on: Staphylococcus epidermidis H 6966/08; experiment: Antibacterial microdilution broth method, S. epidermidis; assay type: cell-based; conditions: Staphylococcus epidermidis, H6966/08, S. epidermidis
Trichosporon asahii 1188 = experiment: Antifungal microdilution broth method, T. asahii; assay type: cell-based
Protocol: as §1

[4] = tested on: ESBL-positive Klebsiella pneumoniae J 14368/08
Candida krusei E28 = experiment: Antifungal microdilution broth method, C. krusei; assay type: cell-based; conditions: Pichia kudriavzevii
Protocol: as §1

[5] = tested on: Candida albicans ATCC 44859; experiment: Antifungal microdilution broth method, C. albicans; assay type: cell-based
Protocol: as §1

[6] = tested on: Trichophyton interdigitale 445; experiment: Antifungal microdilution broth method, T. interdigitale; assay type: cell-based
Protocol: as §1

[7] = tested on: Enterococcus faecalis ATCC 29212, CCM 4224; experiment: Antibacterial microdilution broth method, E. faecalis; assay type: cell-based; conditions: Enterococcus faecalis
[8] = tested on: Escherichia coli ATCC 25922, CCM 3954; experiment: Antibacterial microdilution broth method, E. coli; assay type: cell-based; conditions: Escherichia coli
eight fungal strains = experiment: Antifungal activity; assay type: cell-based; conditions: statement over the fungal panel; time not stated
Protocol: as §1

[9] = tested on: Mycobacterium tuberculosis H37Rv (331/88); experiment: Antimycobacterial micromethod in Šula's medium, M. tuberculosis; assay type: cell-based
[10] = tested on: Lichtheimia corymbifera 272; experiment: Antifungal microdilution broth method, L. corymbifera; assay type: cell-based
Protocol: as §1

[11] = tested on: four Gram-positive and four Gram-negative strains; experiment: Antibacterial activity; assay type: cell-based; conditions: time not stated
[12] = tested on: Staphylococcus aureus ATCC 29213, CCM 4223; experiment: Antibacterial microdilution broth method, S. aureus; assay type: cell-based
[13] = tested on: Klebsiella pneumoniae D 11750/08; experiment: Antibacterial microdilution broth method, K. pneumoniae; conditions: K. pneumoniae D 11750/08; for MIC KP 24 h: 24 h incubation; for MIC KP 48 h: 48 h incubation
[14] = tested on: methicillin-resistant Staphylococcus aureus ATCC 43300, CCM 4750 (MRSA); experiment: Antibacterial microdilution broth method, MRSA; assay type: cell-based; conditions: Staphylococcus aureus
[15] = tested on: Aspergillus fumigatus 231; experiment: Antifungal microdilution broth method, A. fumigatus; assay type: cell-based
Protocol: as §1

Candida tropicalis 156 = experiment: Antifungal microdilution broth method, C. tropicalis; assay type: cell-based
Protocol: as §1

[16] = tested on: Mycobacterium avium 330/88; experiment: Antimycobacterial micromethod in Šula's medium, M. avium; assay type: cell-based
[17] = tested on: Pseudomonas aeruginosa ATCC 27853, CCM 3955; experiment: Antibacterial microdilution broth method, P. aeruginosa; assay type: cell-based; conditions: Pseudomonas aeruginosa
[18] = tested on: Mtb. 331/88 and three non-tuberculous mycobacterial strains; experiment: Antimycobacterial activity; assay type: cell-based; conditions: statement over four mycobacterial strains; time not stated
[19] = 235/80, 168 h, 7 days incubation at 37 °C, read-out: MIC M. kansasii 235/80 7 d
[20] = 235/80, 336 h, 14 days incubation at 37 °C, read-out: MIC M. kansasii 235/80 14 d
[21] = 235/80, 504 h, 21 days incubation at 37 °C, read-out: MIC M. kansasii 235/80 21 d
[22] = 168 h, 7 days incubation at 37 °C, read-out: MIC M. kansasii 6509/96 7 d
[23] = 336 h, 14 days incubation at 37 °C, read-out: MIC M. kansasii 6509/96 14 d
[24] = 504 h, 21 days incubation at 37 °C, read-out: MIC M. kansasii 6509/96 21 d
[25] = 24 h incubation, read-out: MIC SE 24 h
[26] = 48 h incubation, read-out: MIC SE 48 h
[27] = ATCC44859, 24 h, read-out: MIC CA 24 h
[28] = ATCC44859, 48 h, read-out: MIC CA 48 h
[29] = 24 h incubation, read-out: MIC EF 24 h
[30] = 48 h incubation, read-out: MIC EF 48 h
[31] = 24 h incubation, read-out: MIC EC 24 h
[32] = 48 h incubation, read-out: MIC EC 48 h
[33] = 336 h, 14 days incubation at 37 °C, read-out: MIC Mtb. 331/88 14 d
[34] = 504 h, 21 days incubation at 37 °C, read-out: MIC Mtb. 331/88 21 d
[35] = 24 h incubation, read-out: MIC SA 24 h
[36] = 48 h incubation, read-out: MIC SA 48 h
[37] = 24 h incubation, read-out: MIC MRSA 24 h
[38] = 48 h incubation, read-out: MIC MRSA 48 h
[39] = 330/88, 336 h, 14 days incubation at 37 °C, read-out: MIC M. avium 330/88 14 d
[40] = 330/88, 504 h, 21 days incubation at 37 °C, read-out: MIC M. avium 330/88 21 d
[41] = P. aeruginosa, 24 h incubation, read-out: MIC PA 24 h
[42] = P. aeruginosa, 48 h incubation, read-out: MIC PA 48 h

O=C(O)c1ccc(N=Cc2cc(O)ccc2O)cc1 [1i, 4-[(2,5-Dihydroxybenzylidene)amino]benzoic acid] was tested, and the MIC [1, 19] was 500 µM (≈ 129 µg/mL), the MIC [1, 20] was 500 µM (≈ 129 µg/mL) and the MIC [1, 21] was 1000 µM (≈ 257 µg/mL). For the same compound, the MIC [2, 22] was 500 µM (≈ 129 µg/mL), the MIC [2, 23] was 1000 µM (≈ 257 µg/mL) and the MIC [2, 24] was 1000 µM (≈ 257 µg/mL). It also gave an MIC (Candida glabrata 20/I; 24 h, read-out: MIC CG 24 h) of 250 µM (≈ 64.3 µg/mL), an MIC (Candida glabrata 20/I; 48 h, read-out: MIC CG 48 h) of 250 µM (≈ 64.3 µg/mL) and an MIC [3, 25] of 250 µM (≈ 64.3 µg/mL). For the same compound, the MIC [3, 26] was 250 µM (≈ 64.3 µg/mL), the MIC (Trichosporon asahii 1188; 24 h, read-out: MIC TA 24 h) was > 500 µM and the MIC (Trichosporon asahii 1188; 48 h, read-out: MIC TA 48 h) was > 500 µM. The “MIC KP-E 24 h” value [4] was 500 µM (≈ 129 µg/mL), the “MIC KP-E 48 h” value [4] was 500 µM (≈ 129 µg/mL) and the MIC (Candida krusei E28; 24 h, read-out: MIC CK 24 h) was > 500 µM. For the same compound, the MIC (Candida krusei E28; 48 h, read-out: MIC CK 48 h) was > 500 µM, the MIC [5, 27] was 500 µM (≈ 129 µg/mL) and the MIC [5, 28] was 500 µM (≈ 129 µg/mL). For the same compound, the MIC ([6]; 72 h, read-out: MIC TI 72 h) was > 500 µM, the MIC ([6]; 120 h, read-out: MIC TI 120 h) was > 500 µM and the MIC [7, 29] was 500 µM (≈ 129 µg/mL). For the same compound, the MIC [7, 30] was 500 µM (≈ 129 µg/mL), the MIC [8, 31] was > 500 µM and the MIC [8, 32] was > 500 µM. For the same compound, the MIC (eight fungal strains) was ≥ 250 µM, the MIC [9, 33] was 500 µM (≈ 129 µg/mL) and the MIC [9, 34] was 1000 µM (≈ 257 µg/mL). The MIC ([10]; 24 h, read-out: MIC LC 24 h) was > 500 µM, the MIC ([10]; 48 h, read-out: MIC LC 48 h) was > 500 µM and the MIC ([11]; Staphylococcus aureus, MRSA, read-out: MIC, multiple Gram-positive strains including MRSA) was ≥ 250 µM. For the same compound, the MIC [12, 35] was 500 µM (≈ 129 µg/mL), the MIC [12, 36] was 500 µM (≈ 129 µg/mL) and the “MIC KP 24 h” value [13] was 500 µM (≈ 129 µg/mL). For the same compound, the “MIC KP 48 h” value [13] was 500 µM (≈ 129 µg/mL), the MIC [14, 37] was 250 µM (≈ 64.3 µg/mL) and the MIC [14, 38] was 250 µM (≈ 64.3 µg/mL). The MIC ([15]; 24 h, read-out: MIC AF 24 h) was > 500 µM, the MIC ([15]; 48 h, read-out: MIC AF 48 h) was > 500 µM and the MIC (Candida tropicalis 156; 24 h, read-out: MIC CT 24 h) was > 500 µM. For the same compound, the MIC (Candida tropicalis 156; 48 h, read-out: MIC CT 48 h) was > 500 µM, the MIC [16, 39] was 1000 µM (≈ 257 µg/mL) and the MIC [16, 40] was > 1000 µM. For the same compound, the MIC [17, 41] was 500 µM (≈ 129 µg/mL), the MIC [17, 42] was 500 µM (≈ 129 µg/mL) and the MIC ([17]; time not stated, read-out: MIC, P. aeruginosa) was 500 µM (≈ 129 µg/mL).

In the case of O=C(O)c1ccc(N=Cc2ccc(O)cc2)cc1 [1t, 4-[(4-Hydroxybenzylidene)amino]benzoic acid], the MIC [1, 19] is reported as 1000 µM (≈ 241 µg/mL), the MIC [1, 20] is reported as 1000 µM (≈ 241 µg/mL) and the MIC [1, 21] is reported as > 1000 µM. For the same compound, the MIC [2, 22] was 1000 µM (≈ 241 µg/mL), the MIC [2, 23] was 1000 µM (≈ 241 µg/mL) and the MIC [2, 24] was 1000 µM (≈ 241 µg/mL). For the same compound, the MIC (Candida glabrata 20/I; 24 h, read-out: MIC CG 24 h) was > 500 µM, the MIC (Candida glabrata 20/I; 48 h, read-out: MIC CG 48 h) was > 500 µM and the MIC [3, 25] was > 500 µM. The MIC [3, 26] was > 500 µM, the MIC (Trichosporon asahii 1188; 24 h, read-out: MIC TA 24 h) was > 500 µM and the MIC (Trichosporon asahii 1188; 48 h, read-out: MIC TA 48 h) was > 500 µM. For the same compound, the “MIC KP-E 24 h” value [4] was >500 µM, the “MIC KP-E 48 h” value [4] was >500 µM and the MIC (Candida krusei E28; 24 h, read-out: MIC CK 24 h) was > 500 µM. The MIC (Candida krusei E28; 48 h, read-out: MIC CK 48 h) was > 500 µM, the MIC [5, 27] was > 500 µM and the MIC [5, 28] was > 500 µM. For the same compound, the MIC ([6]; 72 h, read-out: MIC TI 72 h) was > 500 µM, the MIC ([6]; 120 h, read-out: MIC TI 120 h) was > 500 µM and the MIC [7, 29] was > 500 µM. The MIC [7, 30] was > 500 µM, the “MIC, antimycobacterial activity” value [18] was “only negligible antimycobacterial activity” and the MIC [8, 31] was > 500 µM. The MIC [8, 32] was > 500 µM, the “MIC, antifungal activity” value (eight fungal strains) was “no antimycotic potency” and the MIC [9, 33] was 1000 µM (≈ 241 µg/mL). The MIC [9, 34] was 1000 µM (≈ 241 µg/mL), the MIC ([10]; 24 h, read-out: MIC LC 24 h) was > 500 µM and the MIC ([10]; 48 h, read-out: MIC LC 48 h) was > 500 µM. The “MIC, antibacterial activity” value ([11]; statement over the bacterial panel) was “avoided any antibacterial action”, the MIC [12, 35] was > 500 µM and the MIC [12, 36] was > 500 µM. The “MIC KP 24 h” value [13] was >500 µM, the “MIC KP 48 h” value [13] was >500 µM and the MIC [14, 37] was > 500 µM. For the same compound, the MIC [14, 38] was > 500 µM, the MIC ([15]; 24 h, read-out: MIC AF 24 h) was > 500 µM and the MIC ([15]; 48 h, read-out: MIC AF 48 h) was > 500 µM. The MIC (Candida tropicalis 156; 24 h, read-out: MIC CT 24 h) was > 500 µM, the MIC (Candida tropicalis 156; 48 h, read-out: MIC CT 48 h) was > 500 µM and the MIC [16, 39] was 1000 µM (≈ 241 µg/mL). The MIC [16, 40] was > 1000 µM, the MIC [17, 41] was > 500 µM and the MIC [17, 42] was > 500 µM.
